Each structure is given as a SMILES string.

`CN(C)CCOc1ccc(C(=O)NN=Cc2ccc(O)cc2)cc1` [H8]: the melting point was 109 to 114 °C.

`CN(C)CCOc1ccc(C(=O)NN=Cc2ccc([N+](=O)[O-])cc2)cc1` [H6] came in with a melting point of 96 to 100 °C.

For the compound `CN(C)CCOc1ccc(C(=O)NN=Cc2ccccc2O)cc1` [H7], the melting point was 149 to 153 °C.

Consider `CN(C)CCOc1ccc(C(=O)NN=Cc2cccc([N+](=O)[O-])c2)cc1` [H5], for which the melting point lay in the range of 125 to 130 °C.

A word on the melting point: it is the temperature, or range, at which the solid turns liquid.
